Where two headings read alike, the source gives them in different places.
Assays:
PAD2 [1] = molecular target: T1, PAD2 (Homo sapiens, UniProt Q9Y2J8); test: Inactivation kinetics; assay type: biochemical
PAD4 [2] = molecular target: T2, PAD4 (Homo sapiens, UniProt Q9UM07); test: Irreversibility study; assay type: biochemical; conditions: for recovery of PAD4 enzymatic activity after dialysis: 100 μM compound, 1 h, dialysis overnight
WT-PAD4 = WT-PAD4 (Homo sapiens, UniProt Q9UM07); test: MALDI-MS analysis of inhibitor-treated enzyme; assay type: binding; conditions: 1:10 enzyme:inhibitor, 1 h, WT-PAD4 3 μM
PAD1 [3] = molecular target: T3, PAD1 (Homo sapiens, UniProt Q9ULC6); test: Inactivation kinetics; assay type: biochemical; conditions: read-out: kinact/KI (apparent), PAD1
T3 sequence (Q9ULC6 1-663): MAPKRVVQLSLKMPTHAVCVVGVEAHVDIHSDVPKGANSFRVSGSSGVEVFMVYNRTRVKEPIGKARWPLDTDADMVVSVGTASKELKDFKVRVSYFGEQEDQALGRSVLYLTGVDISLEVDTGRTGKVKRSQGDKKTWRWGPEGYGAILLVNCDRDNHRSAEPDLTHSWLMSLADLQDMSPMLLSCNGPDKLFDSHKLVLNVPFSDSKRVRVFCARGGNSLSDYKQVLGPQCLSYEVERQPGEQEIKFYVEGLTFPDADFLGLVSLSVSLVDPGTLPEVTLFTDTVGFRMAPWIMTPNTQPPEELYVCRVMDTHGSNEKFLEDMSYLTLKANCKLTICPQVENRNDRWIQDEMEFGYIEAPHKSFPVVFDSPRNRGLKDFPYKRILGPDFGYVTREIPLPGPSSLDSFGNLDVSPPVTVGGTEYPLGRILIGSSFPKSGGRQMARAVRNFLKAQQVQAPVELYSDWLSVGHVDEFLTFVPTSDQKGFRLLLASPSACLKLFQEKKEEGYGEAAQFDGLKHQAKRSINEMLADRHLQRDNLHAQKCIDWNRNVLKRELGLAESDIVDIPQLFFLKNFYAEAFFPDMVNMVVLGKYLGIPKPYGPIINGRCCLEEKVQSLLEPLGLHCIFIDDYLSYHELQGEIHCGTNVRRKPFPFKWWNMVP

PAD4 C645A = PAD4 C645A (Homo sapiens, UniProt Q9UM07, C645A); test: MALDI-MS analysis of inhibitor-treated enzyme; assay type: binding; conditions: 1:10 enzyme:inhibitor, 1 h, PAD4 C645A 5 μM
PADs 1, 2, 3, and 4 = test: Library screening, inhibition of the PADs described in words; assay type: biochemical, human; conditions: 10 μM, PADs 1–4
PAD4 [4] = molecular target: T2, PAD4; test: Substrate; assay type: biochemical; conditions: inactivator 0.5 μM; BAEE 2 mM and 10 mM
PAD2 [5] = molecular target: T1, PAD2; test: MALDI-MS analysis of inhibitor-treated enzyme; assay type: binding; conditions: 1:10 enzyme:inhibitor, 1 h, PAD2 3 μM
PAD2 [6] = molecular target: T1, PAD2; test: Gel-based competitive ABPP with RFA; assay type: binding; conditions: RFA 10 μM, PAD2 2 μM, inhibitor 0–50 μM
PAD4 [7] = molecular target: T2, PAD4; test: Gel-based competitive ABPP with RFA; assay type: binding; conditions: RFA 10 μM, PAD4 2 μM, inhibitor 0–50 μM
PAD4 [8] = molecular target: T2, PAD4; test: Inactivation kinetics; assay type: biochemical
PAD3 [9] = molecular target: T4, PAD3 (Homo sapiens, UniProt Q9ULW8); test: Inactivation kinetics; assay type: biochemical; conditions: read-out: kinact/KI (apparent), PAD3
T4 sequence (Q9ULW8 1-664): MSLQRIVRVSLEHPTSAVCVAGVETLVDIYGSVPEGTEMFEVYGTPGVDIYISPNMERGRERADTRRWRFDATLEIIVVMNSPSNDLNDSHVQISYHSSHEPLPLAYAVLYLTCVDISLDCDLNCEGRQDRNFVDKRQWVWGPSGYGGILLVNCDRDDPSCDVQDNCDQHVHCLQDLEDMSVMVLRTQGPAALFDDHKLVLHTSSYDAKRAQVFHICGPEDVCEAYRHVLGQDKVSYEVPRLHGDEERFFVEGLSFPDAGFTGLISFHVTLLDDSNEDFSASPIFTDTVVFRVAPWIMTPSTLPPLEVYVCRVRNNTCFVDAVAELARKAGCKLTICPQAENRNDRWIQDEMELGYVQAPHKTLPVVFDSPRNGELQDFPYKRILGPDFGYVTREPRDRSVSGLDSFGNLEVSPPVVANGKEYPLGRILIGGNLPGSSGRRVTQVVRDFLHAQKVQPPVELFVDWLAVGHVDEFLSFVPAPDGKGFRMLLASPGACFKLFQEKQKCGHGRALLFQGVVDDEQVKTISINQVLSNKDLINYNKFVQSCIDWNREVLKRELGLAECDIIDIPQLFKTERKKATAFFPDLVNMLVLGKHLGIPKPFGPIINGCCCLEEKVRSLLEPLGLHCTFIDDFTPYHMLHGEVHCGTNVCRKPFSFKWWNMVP

U2OS cells = test: XTT cell viability assay; conditions: 10 μM, 3 days
NIH 3T3 cells = test: XTT cell viability assay; conditions: 10 μM, 3 days
PAD2 [10] = molecular target: T1, PAD2; test: Irreversibility study; assay type: biochemical; conditions: 170-fold excess of 17, dialyzed 20 h
PAD1 [11] = molecular target: T3, PAD1; test: Irreversibility study; assay type: biochemical; conditions: 170-fold excess of 17, dialyzed 20 h
PAD3 [12] = molecular target: T4, PAD3; test: Irreversibility study; assay type: biochemical; conditions: 170-fold excess of 17, dialyzed 20 h
PAD4 [13] = molecular target: T2, PAD4; conditions: cited from earlier work
PADs = conditions: second generation mechanism-based inactivator; cited from earlier work
[14] = read-out: kinact/KI (apparent), PAD2
[15] = read-out: kinact/KI (apparent), PAD4

T1 sequence (Q9Y2J8 whole entry): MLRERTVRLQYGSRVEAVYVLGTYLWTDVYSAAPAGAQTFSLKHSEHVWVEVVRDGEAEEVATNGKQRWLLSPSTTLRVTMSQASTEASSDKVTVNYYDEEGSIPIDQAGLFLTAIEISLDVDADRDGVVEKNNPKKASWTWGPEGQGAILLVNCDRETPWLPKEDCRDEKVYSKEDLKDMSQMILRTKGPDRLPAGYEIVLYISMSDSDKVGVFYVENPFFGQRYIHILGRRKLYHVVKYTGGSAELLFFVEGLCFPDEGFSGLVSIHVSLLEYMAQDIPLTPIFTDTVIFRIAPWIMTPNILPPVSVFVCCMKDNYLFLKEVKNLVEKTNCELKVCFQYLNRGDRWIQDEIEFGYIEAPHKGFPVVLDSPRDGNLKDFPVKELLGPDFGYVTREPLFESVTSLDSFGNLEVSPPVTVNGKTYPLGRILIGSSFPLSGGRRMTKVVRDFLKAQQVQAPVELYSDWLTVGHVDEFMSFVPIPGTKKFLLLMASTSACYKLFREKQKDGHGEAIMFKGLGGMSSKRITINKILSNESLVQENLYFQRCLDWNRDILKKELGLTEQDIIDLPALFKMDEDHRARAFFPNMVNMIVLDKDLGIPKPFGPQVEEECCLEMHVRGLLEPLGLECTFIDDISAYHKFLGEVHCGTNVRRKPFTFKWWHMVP
T2 sequence (Q9UM07 whole entry): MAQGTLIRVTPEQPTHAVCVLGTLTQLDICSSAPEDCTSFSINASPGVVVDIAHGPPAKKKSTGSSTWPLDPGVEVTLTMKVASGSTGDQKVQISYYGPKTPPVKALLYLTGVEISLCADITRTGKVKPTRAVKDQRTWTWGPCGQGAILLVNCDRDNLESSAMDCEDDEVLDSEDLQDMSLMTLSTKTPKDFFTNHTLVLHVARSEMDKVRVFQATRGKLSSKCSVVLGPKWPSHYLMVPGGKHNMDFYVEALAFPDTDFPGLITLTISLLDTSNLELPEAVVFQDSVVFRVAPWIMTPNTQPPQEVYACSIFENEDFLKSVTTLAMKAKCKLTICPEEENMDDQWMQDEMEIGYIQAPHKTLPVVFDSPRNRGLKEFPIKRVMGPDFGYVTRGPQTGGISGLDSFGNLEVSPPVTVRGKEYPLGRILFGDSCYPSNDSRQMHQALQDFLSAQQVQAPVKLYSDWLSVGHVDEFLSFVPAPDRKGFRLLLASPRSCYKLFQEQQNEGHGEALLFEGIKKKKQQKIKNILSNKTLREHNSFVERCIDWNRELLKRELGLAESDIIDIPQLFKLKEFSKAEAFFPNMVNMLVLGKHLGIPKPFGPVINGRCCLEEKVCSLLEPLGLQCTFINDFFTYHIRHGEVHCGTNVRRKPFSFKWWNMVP
Sequence of WT-PAD4 (Q9UM07 whole entry): as above
Sequence of PAD4 C645A (Q9UM07 whole entry C645A): as the sequence (Q9UM07 whole entry) above, with C645A counted along it

SMILES: NC1=CC(=O)c2ccc(-c3ccccn3)nc2C1=O [Compound 3]
- kinact (PAD2 [1]; read-out: kinact, PAD2): 0.00117 s⁻¹
- kinact/KI (PAD2 [1]; read-out: kinact/KI, PAD2): 138 M⁻¹ s⁻¹
- recovery of PAD4 enzymatic activity after dialysis (PAD4 [2]): little to no activity is recovered
- mass shift of WT-PAD4 (Δ Da) (WT-PAD4): 692 Da
- kinact/KI (PAD1 [3]): 53.3 M⁻¹ s⁻¹
- mass shift of PAD4 C645A (Δ Da) (PAD4 C645A): 737 Da
- inhibition of the PADs (in words) (PADs 1, 2, 3, and 4): strong inhibition
- substrate protection against inactivation of PAD4 (PAD4 [4]): little substrate protection was observed
- mass shift of PAD2 (PAD2 [5]): 324 Da
- labeling of PAD2 by RFA (PAD2 [6]): prevent labeling
- labeling of PAD4 by RFA (PAD4 [7]): prevent labeling
- kinact/KI (PAD4 [8]; read-out: kinact/KI, PAD4): 95 M⁻¹ s⁻¹
- kinact/KI (PAD3 [9]): 30 M⁻¹ s⁻¹

SMILES: COC(=O)c1nc(C(C)=O)c2[nH]c3ccccc3c2c1C [Compound 4]
- inhibition of the PADs (in words) (PADs 1, 2, 3, and 4): little to no inhibition

SMILES: COC(=O)c1cccc(-c2ccc3ccc(Br)c(O)c3n2)n1 [Compound 5]
- inhibition of the PADs (in words) (PADs 1, 2, 3, and 4): no inhibition

SMILES: COC(=O)c1nc(C(=O)OC)c(NC(C)=O)c(-c2ccccc2Br)c1C [Compound 6]
- inhibition of the PADs (in words) (PADs 1, 2, 3, and 4): little to no inhibition

SMILES: CCOC(=O)c1nc(C(=O)OCC)c(C(=O)OCC)c(-c2ccc(OC)c(OC)c2OCc2ccccc2)c1C [Compound 7]
- inhibition of the PADs (in words) (PADs 1, 2, 3, and 4): little to no inhibition

SMILES: COC(=O)c1nc(C(=O)OC)c(N)c(-c2ccccc2Br)c1C [Compound 8]
- inhibition of the PADs (in words) (PADs 1, 2, 3, and 4): little to no inhibition

SMILES: COC1=C(Br)C(=O)c2ncccc2C1=O [Compound 10]
- kinact/KI (PAD2 [1]; [14]): 63.3 M⁻¹ s⁻¹
- recovery of PAD4 enzymatic activity after dialysis (PAD4 [2]): little to no activity is recovered
- kinact/KI (PAD1 [3]): 60 M⁻¹ s⁻¹
- inhibition of the PADs (in words) (PADs 1, 2, 3, and 4): strong inhibition
- cells remaining viable, U2OS (U2OS cells): retain significant viability
- cells remaining viable, NIH 3T3 (NIH 3T3 cells): retain significant viability
- kinact/KI (PAD4 [8]; [15]): 81.7 M⁻¹ s⁻¹
- kinact/KI (PAD3 [9]): 25 M⁻¹ s⁻¹

SMILES: NC1=CC(=O)c2cccnc2C1=O [Compound 14]
- kinact/KI (PAD2 [1]; [14]): 86.7 M⁻¹ s⁻¹
- recovery of PAD4 enzymatic activity after dialysis (PAD4 [2]): little to no activity is recovered
- kinact/KI (PAD1 [3]): 76.7 M⁻¹ s⁻¹
- inhibition of the PADs (in words) (PADs 1, 2, 3, and 4): strong inhibition
- kinact/KI (PAD4 [8]; [15]): 93.3 M⁻¹ s⁻¹
- kinact/KI (PAD3 [9]): 51.7 M⁻¹ s⁻¹

SMILES: NC1=CC(=O)c2ccc(-c3cccc(C(=O)O)n3)nc2C1=O [Compound 17]
- recovery of PAD4 enzymatic activity after dialysis (PAD4 [2]): little to no activity is recovered
- PAD4 activity regained after dialysis (PAD4 [2]; 170-fold excess of 17, dialyzed 20 h): Little to no activity was regained
- PAD2 activity regained after dialysis (PAD2 [10]): Little to no activity was regained
- inhibition of the PADs (in words) (PADs 1, 2, 3, and 4): strong inhibition
- PAD1 activity regained after dialysis (PAD1 [11]): Little to no activity was regained
- labeling of PAD2 by RFA (PAD2 [6]): prevent labeling
- cells remaining viable, U2OS (U2OS cells): retain significant viability
- PAD3 activity regained after dialysis (PAD3 [12]): Little to no activity was regained
- labeling of PAD4 by RFA (PAD4 [7]): prevent labeling
- cells remaining viable, NIH 3T3 (NIH 3T3 cells): retain significant viability

SMILES: NC1=C(N)C(=O)c2ccccc2C1=O [Compound 19]
- inhibition of the PADs (PADs 1, 2, 3, and 4): ~ 50%

SMILES: NC1=CC(=O)c2ccc(-c3cc(C(=O)O)ccc3N)nc2C1=O [Compound 22]
- inhibition of the PADs (in words) (PADs 1, 2, 3, and 4): loss in potency

SMILES: O=C(O)c1cccc(-c2ccc3ccc(Br)c(OCc4ccccc4)c3n2)n1 [Compound 23]
- inhibition of the PADs (in words) (PADs 1, 2, 3, and 4): no inhibition

SMILES: COC(=O)c1cc(-c2ccccc2)c(C(=O)OC)c(-c2ccc3ccccc3n2)n1 [Compound 24]
- inhibition of the PADs (in words) (PADs 1, 2, 3, and 4): no inhibition

SMILES: COC(=O)c1nnc(C(=O)OC)c(-c2ccc3c([N+](=O)[O-])c(OC)ccc3n2)n1 [Compound 25]
- inhibition of the PADs (in words) (PADs 1, 2, 3, and 4): no inhibition

SMILES: COC(=O)c1nnc(C(=O)OC)c(-c2ccc3cc(OC)ccc3n2)n1 [Compound 26]
- inhibition of the PADs (in words) (PADs 1, 2, 3, and 4): no inhibition

SMILES: COc1ccc2ncccc2c1[N+](=O)[O-] [Compound 29]
- inhibition of the PADs (in words) (PADs 1, 2, 3, and 4): no inhibition

SMILES: COc1ccc2nc(C#N)ccc2c1 [Compound 30]
- inhibition of the PADs (in words) (PADs 1, 2, 3, and 4): no inhibition

SMILES: COC1=C(N)C(=O)c2nc(-c3nc(C(=O)O)c(C)c(-c4ccc(OC)c(OC)c4O)c3N)ccc2C1=O [Streptonigrin, reference compound]
- preferential inhibition of PAD4 versus PAD1 (PAD4 [13]): 119 fold
- preferential inhibition of PAD4 versus PAD2 (PAD4 [13]): 37 fold
- preferential inhibition of PAD4 versus PAD3 (PAD4 [13]): 126 fold
- mass shift of WT-PAD4 (Δ Da) (WT-PAD4): 710 Da
- mass shift of PAD4 C645A (Δ Da) (PAD4 C645A): 924 Da
- mass shift of PAD2 (PAD2 [5]): 469 Da
- labeling of PAD2 by RFA (PAD2 [6]): decreased the labeling
- labeling of PAD4 by RFA (PAD4 [7]): decreased the labeling

SMILES: CC(=O)N[C@H](C(=O)N[C@@H](CC(=O)O)C(=O)N[C@@H](CCCN=C(N)CF)C(N)=O)[C@@H](C)O [Thr-Asp-F-amidine (TDFA), Thr-Asp-F-amidine]
- kinact/KI (PADs): 26,000 M^−1min^−1

Source: article PMC3954981 (Bioorganic & medicinal chemistry, 2014)
